Source: PubChem BioAssay AID248 (DTP/NCI, 2004)
Several values for one entry are separate records, joined by “and”; a condition that tells them apart may be missing. Identical values can stand only once. Toxic doses and inconclusive results are not listed. No stated cut-off is given here; in the data, active means T/C of 150% or more; inactive means T/C below 125%.

Tested on: L1210 leukemia ip in BDF1 mice, survival T/C
Test: NCI In Vivo Anticancer Drug Screen. Data for tumor model L1210 Leukemia (intraperitoneal) in B6D2F1 (BDF1) mice
Conditions: endpoint: mean survival time, higher = longer survival
Summary of the method: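 Ratio derived from survival: compound-dosed mice over vehicle-dosed mice, all bearing a transplantable tumor.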

[1] = dose: 100.0 mg/kg/injection, schedule: Q04DX002 (ip), vehicle: saline with Tween-80
[2] = dose: 200.0 mg/kg/injection, schedule: Q04DX002 (ip), vehicle: saline with Tween-80
[3] = dose: 100.0 mg/kg/injection, schedule: Q01DX009 (ip), vehicle: saline with Tween-80
[4] = dose: 200.0 mg/kg/injection, schedule: Q01DX009 (ip), vehicle: saline with Tween-80
[5] = dose: 100.0 mg/kg/injection, schedule: Q04DX002 (ip), vehicle: Klucel (hydroxypropylcellulose) (HPC)
[6] = dose: 50.0 mg/kg/injection, schedule: Q01DX009 (ip), vehicle: saline with Tween-80
[7] = dose: 50.0 mg/kg/injection, schedule: Q01DX001 (ip), vehicle: carboxymethylcellulose (CMC)
[8] = dose: 100.0 mg/kg/injection, schedule: Q01DX001 (ip), vehicle: carboxymethylcellulose (CMC)
[9] = dose: 200.0 mg/kg/injection, schedule: Q01DX001 (ip), vehicle: carboxymethylcellulose (CMC)
[10] = dose: 400.0 mg/kg/injection, schedule: Q01DX001 (ip), vehicle: carboxymethylcellulose (CMC)
[11] = dose: 100.0 mg/kg/injection, schedule: Q04DX003 (ip), vehicle: Klucel (hydroxypropylcellulose) (HPC)
[12] = dose: 200.0 mg/kg/injection, schedule: Q04DX003 (ip), vehicle: Klucel (hydroxypropylcellulose) (HPC)
[13] = dose: 400.0 mg/kg/injection, schedule: Q04DX003 (ip), vehicle: Klucel (hydroxypropylcellulose) (HPC)
[14] = dose: 100.0 mg/kg/injection, schedule: Q01DX001 (ip), vehicle: saline
[15] = dose: 200.0 mg/kg/injection, schedule: Q01DX001 (ip), vehicle: saline
[16] = dose: 400.0 mg/kg/injection, schedule: Q01DX001 (ip), vehicle: saline

Measured: T/C

CC1CS(=O)(=O)O1 (stereo not drawn)
inactive: [1] 114 % of control | [2] 105 % of control

O=C(CCCl)OCC#CCOC(=O)CCCl
inactive: [3] 101 % of control | [4] 94 % of control

CC1NCCNCCNCCNC(C)c2cccc1n2 (stereo not drawn)
inactive: dose: 25.0 mg/kg/injection, schedule: Q04DX002 (ip), vehicle: saline 90 % of control | dose: 50.0 mg/kg/injection, schedule: Q04DX002 (ip), vehicle: saline 107 % of control | dose: 100.0 mg/kg/injection, schedule: Q04DX002 (ip), vehicle: saline 89 % of control

CCOc1ccc(C(=N)N2CCN(C)CC2)c2ccccc12
inactive: dose: 4.2 mg/kg/injection, schedule: Q01DX Z (ip), vehicle: methylcellulose (MC) 104 % of control | dose: 6.3 mg/kg/injection, schedule: Q01DX Z (ip), vehicle: methylcellulose (MC) 103 % of control | dose: 9.5 mg/kg/injection, schedule: Q01DX Z (ip), vehicle: methylcellulose (MC) 97 % of control | dose: 14.3 mg/kg/injection, schedule: Q01DX Z (ip), vehicle: methylcellulose (MC) 106 % of control

CCN(Cc1ccccc1)C(=O)Nc1ccccc1
inactive: [5] 101 % of control | dose: 200.0 mg/kg/injection, schedule: Q04DX002 (ip), vehicle: Klucel (hydroxypropylcellulose) (HPC) 93 % of control | dose: 400.0 mg/kg/injection, schedule: Q04DX002 (ip), vehicle: Klucel (hydroxypropylcellulose) (HPC) 97 % of control

CC(=O)OCCCCc1ccccc1
inactive: [6] 97 % of control | [3] 97 % of control | [4] 87 % of control

COc1ccc(CC#N)cc1
inactive: dose: 2.5 mg/kg/injection, schedule: Q04DX002 (ip), vehicle: Klucel (hydroxypropylcellulose) (HPC) 103 % of control | dose: 5.0 mg/kg/injection, schedule: Q01DX009 (ip), vehicle: Klucel (hydroxypropylcellulose) (HPC) 91 % of control | dose: 5.0 mg/kg/injection, schedule: Q04DX002 (ip), vehicle: Klucel (hydroxypropylcellulose) (HPC) 98 % of control | dose: 10.0 mg/kg/injection, schedule: Q01DX009 (ip), vehicle: Klucel (hydroxypropylcellulose) (HPC) 89 % of control | dose: 10.0 mg/kg/injection, schedule: Q04DX002 (ip), vehicle: Klucel (hydroxypropylcellulose) (HPC) 98 % of control and 110 % of control | dose: 20.0 mg/kg/injection, schedule: Q01DX009 (ip), vehicle: Klucel (hydroxypropylcellulose) (HPC) 92 % of control

O/N=C(\c1ccccc1)C(O)c1ccccc1 (stereo not drawn)
inactive: [7] 113 % of control | [8] 105 % of control | [9] 105 % of control | [10] 102 % of control

O=C(CN1CCOCC1)N1CCN(C(=O)CN2CCOCC2)CC1
inactive: [7] 92 % of control | [8] 97 % of control | [9] 95 % of control | [10] 101 % of control

CCOC(CN=Cc1cccc2ccccc12)OCC
inactive: dose: 100.0 mg/kg/injection, schedule: Q04DX003 (ip), vehicle: saline with Tween-80 95 % of control | dose: 200.0 mg/kg/injection, schedule: Q04DX003 (ip), vehicle: saline with Tween-80 93 % of control | dose: 400.0 mg/kg/injection, schedule: Q04DX003 (ip), vehicle: saline with Tween-80 95 % of control

C[P+](Cc1ccccc1)(c1ccccc1)c1ccccc1
inactive: dose: 1.25 mg/kg/injection, schedule: Q01DX001 (ip), vehicle: other 101 % of control | dose: 2.5 mg/kg/injection, schedule: Q01DX001 (ip), vehicle: other 94 % of control | dose: 5.0 mg/kg/injection, schedule: Q01DX001 (ip), vehicle: other 98 % of control

NN=C1C(Cl)=C(Cl)C(Cl)=C1Cl
inactive: [11] 93 % of control | [12] 93 % of control | [13] 98 % of control

CC(C)=CCCC(C)CCOC(N)=O (stereo not drawn)
inactive: [1] 104 % of control | [2] 111 % of control

COc1cc2c(cc1OC)-c1cc3cc(OC)c(OC)cc3c(C)[n+]1CC2 (tested in a mixture with another compound)
inactive: dose: 12.5 mg/kg/injection, schedule: Q04DX002 (ip), vehicle: Klucel (hydroxypropylcellulose) (HPC) 110 % of control | dose: 25.0 mg/kg/injection, schedule: Q01DX009 (ip), vehicle: saline with Tween-80 104 % of control | dose: 25.0 mg/kg/injection, schedule: Q04DX002 (ip), vehicle: Klucel (hydroxypropylcellulose) (HPC) 106 % of control | [6] 107 % of control | dose: 50.0 mg/kg/injection, schedule: Q04DX002 (ip), vehicle: Klucel (hydroxypropylcellulose) (HPC) 95 % of control

c1ccc2c(c1)ccc1cc3ccncc3cc12
inactive: [14] 95 % of control and 98 % of control | [15] 100 % of control and 106 % of control | [16] 96 % of control

COc1cc2c(cc1[N+](=O)[O-])-c1ccc([N+](=O)[O-])cc1/C2=N/NC(N)=S
inactive: dose: 75.0 mg/kg/injection, schedule: Q01DX001 (ip), vehicle: carboxymethylcellulose (CMC) 101 % of control

Cc1ccc(N2CCNCC2)cc1Cl
inactive: dose: 12.5 mg/kg/injection, schedule: Q01DX009 (ip), vehicle: saline 100 % of control | dose: 25.0 mg/kg/injection, schedule: Q01DX009 (ip), vehicle: saline 91 % of control | dose: 50.0 mg/kg/injection, schedule: Q01DX009 (ip), vehicle: saline 102 % of control | dose: 50.0 mg/kg/injection, schedule: Q04DX003 (ip), vehicle: saline 102 % of control

CCCCC(=O)N1CCCC(C)C1 (stereo not drawn)
inactive: [5] 105 % of control

CN(C)C1C(=O)C(C(=O)NCNC(CCS(C)=O)C(=O)O)=C(O)C2(O)C(=O)C3=C(O)c4c(O)cccc4C(C)(O)C3CC12 (stereo not drawn)
inactive: [14] 91 % of control | dose: 100.0 mg/kg/injection, schedule: Q04DX003 (ip), vehicle: saline 95 % of control | [15] 91 % of control | dose: 200.0 mg/kg/injection, schedule: Q04DX003 (ip), vehicle: saline 92 % of control | [16] 91 % of control | dose: 400.0 mg/kg/injection, schedule: Q04DX003 (ip), vehicle: saline 87 % of control

Fc1ccc(Cl)c2cccnc12
inactive: dose: 75.0 mg/kg/injection, schedule: Q01DX001 (ip), vehicle: saline 105 % of control | dose: 150.0 mg/kg/injection, schedule: Q01DX001 (ip), vehicle: saline 102 % of control

CCCCCC(=O)C#Cc1ccccc1
inactive: dose: 6.25 mg/kg/injection, schedule: Q01DX009 (ip), vehicle: other 90 % of control | dose: 12.5 mg/kg/injection, schedule: Q01DX009 (ip), vehicle: other 95 % of control | dose: 25.0 mg/kg/injection, schedule: Q01DX009 (ip), vehicle: other 94 % of control and 96 % of control | dose: 50.0 mg/kg/injection, schedule: Q01DX009 (ip), vehicle: other 91 % of control | dose: 100.0 mg/kg/injection, schedule: Q01DX009 (ip), vehicle: other 93 % of control and 86 % of control

CCOC(=O)c1c(OC(C)=O)cc(C)nc1OC(C)=O
inactive: [14] 100 % of control | [15] 100 % of control | [16] 111 % of control

O=C(/C=C/c1c(Cl)cccc1Cl)c1ccc([N+](=O)[O-])cc1
inactive: [11] 103 % of control | [12] 94 % of control | [13] 94 % of control

Cc1ccc(S(=O)(=O)N(CC(=O)O)Cc2ccccc2)cc1
inactive: dose: 25.0 mg/kg/injection, schedule: Q01DX009 (ip), vehicle: sodium bicarbonate 104 % of control | dose: 50.0 mg/kg/injection, schedule: Q01DX009 (ip), vehicle: sodium bicarbonate 100 % of control | dose: 100.0 mg/kg/injection, schedule: Q01DX001 (ip), vehicle: saline with Tween-80 100 % of control | [3] 104 % of control | dose: 100.0 mg/kg/injection, schedule: Q01DX009 (ip), vehicle: sodium bicarbonate 98 % of control | dose: 200.0 mg/kg/injection, schedule: Q01DX001 (ip), vehicle: saline with Tween-80 97 % of control | [4] 110 % of control | dose: 200.0 mg/kg/injection, schedule: Q01DX009 (ip), vehicle: sodium bicarbonate 98 % of control | dose: 400.0 mg/kg/injection, schedule: Q01DX001 (ip), vehicle: saline with Tween-80 95 % of control | dose: 400.0 mg/kg/injection, schedule: Q01DX009 (ip), vehicle: saline with Tween-80 95 % of control and 112 % of control | dose: 400.0 mg/kg/injection, schedule: Q01DX009 (ip), vehicle: sodium bicarbonate 97 % of control | dose: 800.0 mg/kg/injection, schedule: Q01DX009 (ip), vehicle: saline with Tween-80 92 % of control | dose: 1600.0 mg/kg/injection, schedule: Q01DX009 (ip), vehicle: saline with Tween-80 117 % of control
